Key:
[1] = target: T1, Cyclin-G-associated kinase (Homo sapiens) (UniProt O14976); assay: Selectivity interaction (DSF assay) EUB0000229b GAK
T1 sequence (whole entry): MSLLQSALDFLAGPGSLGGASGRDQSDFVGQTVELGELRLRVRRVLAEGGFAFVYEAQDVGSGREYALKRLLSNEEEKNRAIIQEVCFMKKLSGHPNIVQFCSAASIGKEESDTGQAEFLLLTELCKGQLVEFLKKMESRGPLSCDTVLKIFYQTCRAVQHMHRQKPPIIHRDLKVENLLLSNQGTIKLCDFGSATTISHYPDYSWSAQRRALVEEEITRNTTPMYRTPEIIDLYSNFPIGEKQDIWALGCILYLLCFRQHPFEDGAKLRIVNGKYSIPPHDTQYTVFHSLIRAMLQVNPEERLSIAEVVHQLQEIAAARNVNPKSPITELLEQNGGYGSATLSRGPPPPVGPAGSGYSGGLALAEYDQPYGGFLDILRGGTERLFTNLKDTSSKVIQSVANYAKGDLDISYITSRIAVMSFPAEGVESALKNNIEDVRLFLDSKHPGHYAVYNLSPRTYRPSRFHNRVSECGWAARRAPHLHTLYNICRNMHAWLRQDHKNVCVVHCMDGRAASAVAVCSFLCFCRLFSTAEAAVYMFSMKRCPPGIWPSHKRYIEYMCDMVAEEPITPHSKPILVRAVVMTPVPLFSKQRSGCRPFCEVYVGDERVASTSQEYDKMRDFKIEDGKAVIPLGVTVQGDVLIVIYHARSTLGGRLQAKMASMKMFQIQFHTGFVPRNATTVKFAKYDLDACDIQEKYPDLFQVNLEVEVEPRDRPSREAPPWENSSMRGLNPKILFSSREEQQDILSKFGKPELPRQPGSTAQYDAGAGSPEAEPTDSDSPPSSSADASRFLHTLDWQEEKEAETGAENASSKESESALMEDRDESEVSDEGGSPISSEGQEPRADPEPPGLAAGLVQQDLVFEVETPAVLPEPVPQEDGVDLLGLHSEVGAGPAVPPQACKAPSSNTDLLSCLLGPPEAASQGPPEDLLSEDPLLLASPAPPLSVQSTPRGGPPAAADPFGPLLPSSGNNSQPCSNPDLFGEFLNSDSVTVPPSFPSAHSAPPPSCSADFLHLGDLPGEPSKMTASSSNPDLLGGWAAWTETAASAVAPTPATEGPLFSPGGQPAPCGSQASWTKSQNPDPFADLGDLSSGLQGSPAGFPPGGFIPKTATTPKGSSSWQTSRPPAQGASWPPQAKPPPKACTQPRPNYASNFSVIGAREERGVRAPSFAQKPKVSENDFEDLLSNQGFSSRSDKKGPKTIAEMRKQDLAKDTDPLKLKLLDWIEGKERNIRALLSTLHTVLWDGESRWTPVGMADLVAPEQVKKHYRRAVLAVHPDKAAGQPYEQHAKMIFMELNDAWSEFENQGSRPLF

[2] = target: T2, Serine/threonine-protein kinase NLK (Homo sapiens) (UniProt Q9UBE8); assay: Selectivity interaction (KinomeScan (DiscoverX)) EUB0000229b NLK; settings: at 10 µM
T2 sequence (whole entry): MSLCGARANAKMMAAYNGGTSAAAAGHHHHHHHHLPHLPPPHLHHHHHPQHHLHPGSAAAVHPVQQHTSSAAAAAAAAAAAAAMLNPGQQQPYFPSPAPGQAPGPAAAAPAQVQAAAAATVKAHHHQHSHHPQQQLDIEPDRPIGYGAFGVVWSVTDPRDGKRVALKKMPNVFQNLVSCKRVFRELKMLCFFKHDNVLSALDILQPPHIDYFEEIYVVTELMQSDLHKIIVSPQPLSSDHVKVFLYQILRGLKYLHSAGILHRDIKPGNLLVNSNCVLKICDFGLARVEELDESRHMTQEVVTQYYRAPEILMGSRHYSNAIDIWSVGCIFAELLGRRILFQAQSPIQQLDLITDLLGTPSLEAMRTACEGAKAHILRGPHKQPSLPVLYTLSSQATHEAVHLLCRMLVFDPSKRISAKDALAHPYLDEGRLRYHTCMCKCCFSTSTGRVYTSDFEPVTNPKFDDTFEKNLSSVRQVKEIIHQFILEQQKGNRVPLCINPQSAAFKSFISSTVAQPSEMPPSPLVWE

[3] = target: T3, Serine/threonine-protein kinase Sgk3 (Homo sapiens) (UniProt Q96BR1); assay: Selectivity interaction (Kinase panel (Z-LYTE Assay)) EUB0001632a SGK3; settings: at 10 µM
T3 sequence (whole entry): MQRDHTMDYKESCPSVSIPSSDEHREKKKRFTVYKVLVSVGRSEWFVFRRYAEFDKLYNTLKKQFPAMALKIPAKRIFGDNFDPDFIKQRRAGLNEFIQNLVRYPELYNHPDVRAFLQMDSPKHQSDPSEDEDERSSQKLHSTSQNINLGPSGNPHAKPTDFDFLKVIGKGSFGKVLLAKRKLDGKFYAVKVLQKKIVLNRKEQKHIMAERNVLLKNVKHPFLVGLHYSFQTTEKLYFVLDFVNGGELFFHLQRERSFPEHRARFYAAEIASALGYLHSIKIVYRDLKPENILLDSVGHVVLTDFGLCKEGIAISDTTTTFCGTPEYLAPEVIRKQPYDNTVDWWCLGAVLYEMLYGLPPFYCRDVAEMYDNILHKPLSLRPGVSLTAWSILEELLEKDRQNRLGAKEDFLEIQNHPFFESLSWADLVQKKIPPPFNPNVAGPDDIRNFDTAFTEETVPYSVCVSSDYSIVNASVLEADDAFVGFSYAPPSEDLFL

[4] = target: Rho-associated protein kinase 2 (Homo sapiens, UniProt O75116); assay: Selectivity interaction (Upstate Kinase Profiler service (Millipore)) EUB0000056c ROCK2; settings: at 1 µM
Sequence of Rho-associated protein kinase 2 (O75116 whole entry, looked up): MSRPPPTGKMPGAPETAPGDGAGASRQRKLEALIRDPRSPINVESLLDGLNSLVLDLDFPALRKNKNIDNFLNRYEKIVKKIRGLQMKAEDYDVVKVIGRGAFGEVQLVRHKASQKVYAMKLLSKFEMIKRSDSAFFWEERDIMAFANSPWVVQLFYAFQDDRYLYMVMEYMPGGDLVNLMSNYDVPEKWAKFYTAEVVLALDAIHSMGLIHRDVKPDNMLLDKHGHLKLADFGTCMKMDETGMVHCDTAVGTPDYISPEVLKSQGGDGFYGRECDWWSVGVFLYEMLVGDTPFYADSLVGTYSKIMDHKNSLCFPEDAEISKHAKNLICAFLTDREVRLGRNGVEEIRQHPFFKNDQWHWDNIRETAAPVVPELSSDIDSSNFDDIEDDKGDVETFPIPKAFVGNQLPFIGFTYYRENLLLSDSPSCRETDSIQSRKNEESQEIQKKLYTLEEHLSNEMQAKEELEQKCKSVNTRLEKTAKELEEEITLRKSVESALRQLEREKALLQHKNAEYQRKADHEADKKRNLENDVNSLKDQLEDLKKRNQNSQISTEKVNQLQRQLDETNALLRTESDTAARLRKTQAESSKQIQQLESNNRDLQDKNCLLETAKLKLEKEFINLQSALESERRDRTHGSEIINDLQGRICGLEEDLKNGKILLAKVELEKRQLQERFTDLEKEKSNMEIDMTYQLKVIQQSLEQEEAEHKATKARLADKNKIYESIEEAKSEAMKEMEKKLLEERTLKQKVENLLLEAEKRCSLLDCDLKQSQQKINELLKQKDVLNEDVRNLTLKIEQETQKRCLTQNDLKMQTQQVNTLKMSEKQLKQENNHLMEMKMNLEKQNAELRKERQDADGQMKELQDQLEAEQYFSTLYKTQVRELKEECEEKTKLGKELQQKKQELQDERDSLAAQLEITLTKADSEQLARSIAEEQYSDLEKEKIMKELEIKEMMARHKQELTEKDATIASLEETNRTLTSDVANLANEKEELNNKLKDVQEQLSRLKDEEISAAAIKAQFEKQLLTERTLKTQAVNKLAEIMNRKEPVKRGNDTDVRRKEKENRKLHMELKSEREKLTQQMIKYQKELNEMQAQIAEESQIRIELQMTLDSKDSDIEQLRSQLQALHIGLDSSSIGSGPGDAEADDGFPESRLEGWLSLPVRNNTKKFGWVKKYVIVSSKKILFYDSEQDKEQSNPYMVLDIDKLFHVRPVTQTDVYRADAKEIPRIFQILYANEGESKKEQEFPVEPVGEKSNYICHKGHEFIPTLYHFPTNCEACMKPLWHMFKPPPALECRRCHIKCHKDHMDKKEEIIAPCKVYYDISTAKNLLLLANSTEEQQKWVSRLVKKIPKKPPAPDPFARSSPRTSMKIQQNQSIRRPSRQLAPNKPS

[5] = target: T4, Calcium/calmodulin-dependent protein kinase type IV (Homo sapiens) (UniProt Q16566); assay: Selectivity interaction (KinomeScan (DiscoverX)) EUB0000607a CAMK4; settings: at 10 µM
T4 sequence (whole entry): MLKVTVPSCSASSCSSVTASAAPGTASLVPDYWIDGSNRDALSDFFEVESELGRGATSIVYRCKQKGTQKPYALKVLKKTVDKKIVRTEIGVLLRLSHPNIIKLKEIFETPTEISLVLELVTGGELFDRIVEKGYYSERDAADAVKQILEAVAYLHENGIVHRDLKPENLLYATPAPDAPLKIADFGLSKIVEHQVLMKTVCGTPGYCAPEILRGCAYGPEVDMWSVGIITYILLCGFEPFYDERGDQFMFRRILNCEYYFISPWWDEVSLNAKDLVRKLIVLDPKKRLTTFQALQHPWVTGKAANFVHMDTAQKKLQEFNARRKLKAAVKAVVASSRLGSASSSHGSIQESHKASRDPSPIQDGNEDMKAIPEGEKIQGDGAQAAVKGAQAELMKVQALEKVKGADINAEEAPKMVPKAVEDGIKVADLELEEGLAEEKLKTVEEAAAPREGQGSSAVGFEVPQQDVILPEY

[6] = target: Protein kinase C theta type (Homo sapiens, UniProt Q04759); assay: Selectivity interaction (Kinase panel (Invitrogen)) EUB0000639a PRKCQ; settings: at 200 nM
Sequence of Protein kinase C theta type (Q04759 whole entry, looked up): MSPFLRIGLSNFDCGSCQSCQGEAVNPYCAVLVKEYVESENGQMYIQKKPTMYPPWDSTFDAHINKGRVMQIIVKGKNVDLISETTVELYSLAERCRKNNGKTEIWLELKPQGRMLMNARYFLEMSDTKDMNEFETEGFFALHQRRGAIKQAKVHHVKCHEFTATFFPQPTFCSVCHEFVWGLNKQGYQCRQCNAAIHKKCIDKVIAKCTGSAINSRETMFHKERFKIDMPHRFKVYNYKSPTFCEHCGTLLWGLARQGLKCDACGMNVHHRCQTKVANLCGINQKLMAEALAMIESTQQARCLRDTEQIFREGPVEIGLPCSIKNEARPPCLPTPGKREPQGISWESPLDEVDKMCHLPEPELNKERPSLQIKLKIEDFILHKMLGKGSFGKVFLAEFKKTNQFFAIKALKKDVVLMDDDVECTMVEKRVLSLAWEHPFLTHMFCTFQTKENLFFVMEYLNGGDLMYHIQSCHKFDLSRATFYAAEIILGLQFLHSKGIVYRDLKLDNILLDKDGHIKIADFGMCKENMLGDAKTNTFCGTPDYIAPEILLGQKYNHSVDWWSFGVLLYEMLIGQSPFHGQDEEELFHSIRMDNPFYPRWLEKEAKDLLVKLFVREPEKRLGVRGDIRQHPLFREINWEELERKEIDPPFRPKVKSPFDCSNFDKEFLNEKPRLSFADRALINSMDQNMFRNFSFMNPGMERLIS

In the case of `COc1cc(N(C)c2ccnc3ccc(C(F)(F)F)cc23)cc(OC)c1OC`, the dTm [1] is reported as -0.3 K and the % binding [2] is reported as 64%.

For `Cn1cc(-n2cnc3c(NCc4nc5cc(Cl)c(Cl)cc5[nH]4)nc(N4CCOCC4)nc32)cn1`, the % of control [3] was 0.168%.

With `Cc1ccc(-c2ccc3c(ccc4sc5c(c43)NC[C@@H](C)NC5=O)n2)cn1` the % of inhibition [4] was -9%.

Compound `CNC(=O)Nc1ccc(-c2nc(N3CC4CCC(C3)O4)c3cnn(C4CCC5(CC4)OCCO5)c3n2)cc1` has a % of control [5] of 100%.

Work on `CC[C@@H]1[C@H](F)C(=O)N[C@@H]1COc1nccc2cc(C(N)=O)c(OC)cc12` [ZIMLOVISERTIB] yielded a % of inhibition [6] of 3.66%.

Source: ChEMBL document CHEMBL5465560, “Selectivity Literature for EUbOPEN Chemogenomic Library” (2024)
